The target of this assay is T1, human HSL (Homo sapiens, UniProt Q05469).
T1 construct: overlapping PCR to generate a full length human HSL ORF with a 3′-His6 tag; His6 (C); made in house; host or cells: High 5 insect cells (baculovirus, pFast-BAC)
T1 sequence (Q05469 1-1076): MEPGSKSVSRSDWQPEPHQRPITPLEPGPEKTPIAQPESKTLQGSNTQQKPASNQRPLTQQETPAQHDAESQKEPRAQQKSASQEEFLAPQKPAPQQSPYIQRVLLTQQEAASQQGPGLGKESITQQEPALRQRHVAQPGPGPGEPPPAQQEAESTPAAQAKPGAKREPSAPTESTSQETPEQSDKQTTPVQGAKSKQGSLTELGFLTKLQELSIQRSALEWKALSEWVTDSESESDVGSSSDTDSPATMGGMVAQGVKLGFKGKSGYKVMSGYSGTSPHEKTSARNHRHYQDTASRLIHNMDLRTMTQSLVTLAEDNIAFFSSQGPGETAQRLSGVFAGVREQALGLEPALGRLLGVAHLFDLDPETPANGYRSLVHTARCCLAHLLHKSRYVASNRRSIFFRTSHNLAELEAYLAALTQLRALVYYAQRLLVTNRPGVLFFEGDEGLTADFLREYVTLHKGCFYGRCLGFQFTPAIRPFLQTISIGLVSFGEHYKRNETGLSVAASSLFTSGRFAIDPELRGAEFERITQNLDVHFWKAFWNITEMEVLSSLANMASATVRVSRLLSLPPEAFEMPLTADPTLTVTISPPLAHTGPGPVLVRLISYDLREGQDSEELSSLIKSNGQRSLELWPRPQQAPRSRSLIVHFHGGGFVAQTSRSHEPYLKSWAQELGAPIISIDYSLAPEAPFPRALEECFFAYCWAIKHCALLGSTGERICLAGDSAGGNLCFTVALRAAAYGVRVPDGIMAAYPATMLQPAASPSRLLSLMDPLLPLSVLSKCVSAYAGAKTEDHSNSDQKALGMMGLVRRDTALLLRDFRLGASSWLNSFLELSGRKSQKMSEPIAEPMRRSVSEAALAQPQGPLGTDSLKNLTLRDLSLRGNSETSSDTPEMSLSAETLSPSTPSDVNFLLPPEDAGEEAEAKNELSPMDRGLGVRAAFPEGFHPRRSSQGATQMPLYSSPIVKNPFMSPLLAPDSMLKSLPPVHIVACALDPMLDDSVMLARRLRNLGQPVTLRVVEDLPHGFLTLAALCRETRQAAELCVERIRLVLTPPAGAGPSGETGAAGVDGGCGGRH
Briefly: Human hormone-sensitive lipase (HSL) enzyme inhibition assay (colorimetric, DMPT substrate). Type of assay: biochemical. To be noted: human full length HSL-His6; 2,3-dimercapto-1-propanol tributyrate substrate; 37° C., 20 minutes; read-out: HSL hum IC50. On the procedure: Production of Human Full Length Hormone Sensitive Lipase-His^6:
1) Cloning: cDNA was prepared from commercial human brain polyA+ RNA and used as a template in overlapping PCR to generate a full length human HSL ORF with a 3′-His6 tag. This full length insert was cloned into the pFast-BAC vector and the DNA-sequence of several single clones was verified. DNA from a correct full length clone with the 3′His6 tag was used to transform the E. coli strain DH10BAC. Resulting bacmid DNA was used to generate a titered baculovirus stock for protein generation. The sequence of the encoded HSL conforms to Swissprot entry Q05469, with the additional C-terminal His6-tag.
2) Protein purification: Culture: 5.5 L, High 5 cells expressing human full length HSL-His^6, 48 hr., containing 25 μM E-64. Cell count: […], 90% viable. Cells were thawed. On ice, cells were suspended in Base Buffer containing 10% glycerol, 25 mM Tris-Cl, 300 mM NaCl, 10 mM imidazole, 10 mM 2-mercaptoethanol, 2 μg pepstatin/ml, 2 μg leupeptin/ml, 2 μg antipain/ml, pH 8.0 at 4° C. in a final volume of 475 ml with 3.75×10^7 cells/ml. […] was done at 3×30 sec., Lubrol PX was added to 0.2% final concentration followed by stirring for 15 min. at 4° C. and centrifugation at 25 k×g, 60 min., 4° C. Soluble proteins were mixed with 60 ml of pre-washed and equilibrated Ni-NTA Agarose (Qiagen 30210) followed by tumbling end-over-end, 45 min., 4° C., centrifugation 1000 rpm 5 min and letting resin settle 5 min. Supernatant was removed, the resin washed in the centrifuge vessel using 5 volumes of Base Buffer containing 0.2% Lubrol PX. Centrifugation was done again, then the supernatant discarded. The resin was poured onto a 0.8 μm membrane in a disposable filter unit (Nalge 450-0080), and washed with 5 volumes of Base Buffer containing 0.2% Lubrol PX. It was then washed with 30 volumes of Base Buffer containing 60 mM imidazole pH 7.5 at 4° C. The protein was eluated with 5 volumes of 25 mM Tris-Cl, 300 mM NaCl, 200 mM imidazole, 10 mM 2-mercaptoethanol, pH 7.5 at 4° C. by tumbling resin with buffer end-over-end, 30 min., 4° C. The resin was captured on a 0.2 μm membrane disposable filter unit (Millipore SCGP U02 RE) and the eluate collected in the reservoir. The eluate was concentrated using a 30 k MWCO centrifugal filter device (Sartorius Vivascience Vivacell 100, VC1022), to 20 ml. It was then dialyzed overnight at 4° C., two times against 2 L of 10% glycerol, 25 mM Tris-Cl, 300 mM NaCl, 0.2 mM EDTA, 0.2 mM DTT, pH 7.5 at 4° C. The protein was filtered using a 0.22 μm disposable filter unit (Millipore SCGP00525). The protein concentration was calculated from absorbance at 280 nm, using 280=0.67 cm-1 mg-1. Yield was 235 mg, total. The protein was stored at −80° C.
Human Hormone-Sensitive Lipase (HSL) Enzyme Inhibition Assay:
HSL enzyme activity was measured by a colorimetric assay using 2,3-dimercapto-1-propanol tributyrate (Aldrich, St. Louis, Mo.) as a substrate. Typically, 1.5 mM 2,3-dimercapto-1-propanol tributyrate (DMPT) in 100 mM MOPS, pH 7.2, 0.2 mg/ml fatty acid-free BSA was prepared by sonication at 4° C. to homogenous suspension. Test compounds (2 mM stock in DMSO) were diluted 3 fold in series in DMSO. Compound solutions were diluted 24 fold in 1.5 mM DMPT containing solution and 18 ul per well was added to 384-well microplates (Corning Costar). Twelve microliters per well of human HSL (15 ug/ml) was added and the reaction mixture was incubated at 37° C. for 20 minutes. Six microliters of 12 mM dithio-bis-(2-nitrobenzoic acid) (DTNB) in DMSO plus 1.2% SDS and 0.6% Triton X-100 were added and the mixture was incubated at room temperature for 15 minutes. Product production was monitored by reading absorbance at 405 nm on an Envision Reader (PerkinElmer Life and Analytical Sciences, Shelton, Conn.).

On to `Cc1ccc(S(=O)(=O)N2CCC(C(=O)Nc3ccc(O[C@H](CCO)C(F)(F)F)cc3)CC2)cc1` [Example 60, 1-(Toluene-4-sulfonyl)-piperidine-4-carboxylic acid [4-((R)-3-hydroxy-1-trifluoromethyl-propoxy)-phenyl]-amide], for which the IC50 (as a rule, the concentration at which inhibition is half-maximal) was 70 nM. As to `Cc1ccc(S(=O)(=O)N2CCC(C)(C(=O)Nc3ccc(OC(F)(F)F)cc3)CC2)cc1` [Example 31, 4-Methyl-1-(toluene-4-sulfonyl)-piperidine-4-carboxylic acid (4-trifluoromethoxy-phenyl)-amide], the IC50 worked out at 480 nM.

`O=C(Nc1ccc(OC(F)(F)F)cc1)C1(F)CCN(S(=O)(=O)c2ccccc2Cl)CC1` [Example 30, 1-(2-Chloro-benzenesulfonyl)-4-fluoro-piperidine-4-carboxylic acid (4-trifluoromethoxy-phenyl)-amide]: the IC50 amounted to 180 nM. Next, `CC(C)(C)CC(=O)N1CCC(C(=O)Nc2ccc(OC(F)(F)F)cc2)CC1` [Example 21, 1-(3,3-Dimethyl-butyryl)-piperidine-4-carboxylic acid (4-trifluoromethoxy-phenyl)-amide]: 200 nM. Consider `CC(C)(C)CCC(=O)N1CCC(C(=O)Nc2ccc(OC(F)(F)F)cc2)CC1` [Example 56, 1-(4,4-Dimethyl-pentanoyl)-piperidine-4-carboxylic acid (4-trifluoromethoxy-phenyl)-amide], for which the IC50 amounted to 260 nM. With `O=C(Nc1ccc(OC(F)(F)F)cc1)C1CCN(S(=O)(=O)c2ccccc2)CC1` [Example 46, 1-Benzenesulfonyl-piperidine-4-carboxylic acid (4-trifluoromethoxy-phenyl)-amide] the figure was 40 nM. Next, `CC1(C(=O)Nc2ccc(OC(F)(F)F)cc2)CCN(S(=O)(=O)c2ccccc2)CC1` [Example 57, 1-Benzenesulfonyl-4-methyl-piperidine-4-carboxylic acid (4-trifluoromethoxy-phenyl)-amide]: 250 nM; `Cc1ccc(S(=O)(=O)N2CCC(C(=O)Nc3ccc4c(c3)CCO4)CC2)cc1` [Example 17, 1-(Toluene-4-sulfonyl)-piperidine-4-carboxylic acid (2,3-dihydro-benzofuran-5-yl)-amide]: 770 nM. As for `Cc1ccc(S(=O)(=O)N2CCC(C(=O)Nc3ccc(OC(C)C)cc3F)CC2)cc1` [Example 15, 1-(Toluene-4-sulfonyl)-piperidine-4-carboxylic acid (2-fluoro-4-isopropoxy-phenyl)-amide], the IC50 worked out at 470 nM. For the compound `COCC[C@@H](Oc1ccc(NC(=O)C2CCN(S(=O)(=O)c3ccc(C)cc3)CC2)cc1)C(F)(F)F` [Example 59, 1-(Toluene-4-sulfonyl)-piperidine-4-carboxylic acid [4-((R)-3-methoxy-1-trifluoromethyl-propoxy)-phenyl]-amide], the IC50 is 290 nM. For `O=C(Nc1ccc(OC(F)(F)F)cc1)C1(CO)CCN(S(=O)(=O)c2ccccc2)CC1` [Example 26, 1-Benzenesulfonyl-4-hydroxymethyl-piperidine-4-carboxylic acid (4-trifluoromethoxy-phenyl)-amide], the IC50 worked out at 220 nM. With `COc1ccc(S(=O)(=O)N2CCC(C(=O)Nc3ccc(OC(F)(F)F)cc3)CC2)cc1` [Example 48, 1-(4-Methoxy-benzenesulfonyl)-piperidine-4-carboxylic acid (4-trifluoromethoxy-phenyl)-amide] the figure was 40 nM; with `CC(C)c1ccc(NC(=O)C2CCN(C(=O)CCC3CC3)CC2)cc1` [Example 9, 1-(3-Cyclopropyl-propionyl)-piperidine-4-carboxylic acid (4-isopropyl-phenyl)-amide], 350 nM. Next, `CC(Oc1ccc(NC(=O)C2CCN(C(=O)c3ccccc3Cl)CC2)cc1)C(F)(F)F` (racemic) [Example 44, (rac)-1-(2-Chloro-benzoyl)-piperidine-4-carboxylic acid [4-(2,2,2-trifluoro-1-methyl-ethoxy)-phenyl]-amide]: 620 nM.

For the origin of these results see patent US8258158B2 (Hoffmann-La Roche Inc., priority 2009, dated 2012).
